From the NIST ThermoML archive (doi:10.1016/j.jct.2014.01.006)
Values joined by “and” are separate entries in the source; they are usually repeats but may differ in a detail not shown here. Identical values can stand only once. Numbers after ± are expanded uncertainties.

Legend:
[1] = molar heat capacity at saturation pressure
[2] = Molar enthalpy of transition or fusion; conditions: Crystal; Adiabatic calorimetry

Compound: c1ccc(-c2cccc3ccccc23)cc1 [1-phenylnaphthalene]
- molar heat capacity ([1]; 60 K, Crystal, Vacuum adiabatic calorimetry): 63.39 ± 0.13 J/K/mol
- molar heat capacity ([1]; 61.92 K, Crystal, Vacuum adiabatic calorimetry): 65.08 ± 0.14 J/K/mol
- molar heat capacity ([1]; 63.69 K, Crystal, Vacuum adiabatic calorimetry): 66.18 ± 0.14 J/K/mol
- molar heat capacity ([1]; 66.86 K, Crystal, Vacuum adiabatic calorimetry): 68.59 ± 0.14 J/K/mol
- molar heat capacity ([1]; 70 K, Crystal, Vacuum adiabatic calorimetry): 70.93 ± 0.15 J/K/mol
- molar heat capacity ([1]; 70.04 K, Crystal, Vacuum adiabatic calorimetry): 71 ± 0.15 J/K/mol
- molar heat capacity ([1]; 71.83 K, Crystal, Vacuum adiabatic calorimetry): 72.22 ± 0.15 J/K/mol
- molar heat capacity ([1]; 76.82 K, Crystal, Vacuum adiabatic calorimetry): 75.66 ± 0.16 J/K/mol
- molar heat capacity ([1]; 77.08 K, Crystal, Vacuum adiabatic calorimetry): 75.91 ± 0.16 J/K/mol
- molar heat capacity ([1]; 80 K, Crystal, Vacuum adiabatic calorimetry): 77.87 ± 0.16 J/K/mol
- molar heat capacity ([1]; 81.77 K, Crystal, Vacuum adiabatic calorimetry): 79.16 ± 0.16 J/K/mol
- molar heat capacity ([1]; 84.85 K, Crystal, Vacuum adiabatic calorimetry): 81.07 ± 0.17 J/K/mol
- molar heat capacity ([1]; 86.7 K, Crystal, Vacuum adiabatic calorimetry): 82.3 ± 0.17 J/K/mol
- molar heat capacity ([1]; 90 K, Crystal, Vacuum adiabatic calorimetry): 84.45 ± 0.22 J/K/mol
- molar heat capacity ([1]; 92.7 K, Glass, Vacuum adiabatic calorimetry): 86.97 ± 0.22 J/K/mol
- molar heat capacity ([1]; 93.5 K, Crystal, Vacuum adiabatic calorimetry): 86.69 ± 0.22 J/K/mol
- molar heat capacity ([1]; 100 K, Crystal, Vacuum adiabatic calorimetry): 90.82 ± 0.22 J/K/mol
- molar heat capacity ([1]; 102.16 K, Glass, Vacuum adiabatic calorimetry): 93.03 ± 0.22 J/K/mol
- molar heat capacity ([1]; 102.86 K, Crystal, Vacuum adiabatic calorimetry): 92.63 ± 0.22 J/K/mol
- molar heat capacity ([1]; 111.98 K, Glass, Vacuum adiabatic calorimetry): 99.33 ± 0.23 J/K/mol
- molar heat capacity ([1]; 112.57 K, Crystal, Vacuum adiabatic calorimetry): 98.86 ± 0.23 J/K/mol
- molar heat capacity ([1]; 120 K, Crystal, Vacuum adiabatic calorimetry): 103.63 ± 0.24 J/K/mol
- molar heat capacity ([1]; 122.36 K, Crystal, Vacuum adiabatic calorimetry): 105.15 ± 0.24 J/K/mol
- molar heat capacity ([1]; 122.48 K, Glass, Vacuum adiabatic calorimetry): 106.16 ± 0.24 J/K/mol
- molar heat capacity ([1]; 132.22 K, Crystal, Vacuum adiabatic calorimetry): 111.61 ± 0.25 J/K/mol
- molar heat capacity ([1]; 133.24 K, Glass, Vacuum adiabatic calorimetry): 113.28 ± 0.25 J/K/mol
- molar heat capacity ([1]; 140 K, Crystal, Vacuum adiabatic calorimetry): 116.81 ± 0.25 J/K/mol
- molar heat capacity ([1]; 142.62 K, Crystal, Vacuum adiabatic calorimetry): 118.58 ± 0.26 J/K/mol
- molar heat capacity ([1]; 144.86 K, Glass, Vacuum adiabatic calorimetry): 121.24 ± 0.26 J/K/mol
- molar heat capacity ([1]; 153.97 K, Crystal, Vacuum adiabatic calorimetry): 126.35 ± 0.27 J/K/mol
- molar heat capacity ([1]; 158.22 K, Glass, Vacuum adiabatic calorimetry): 130.67 ± 0.27 J/K/mol
- molar heat capacity ([1]; 160 K, Crystal, Vacuum adiabatic calorimetry): 130.74 ± 0.27 J/K/mol
- molar heat capacity ([1]; 165.78 K, Crystal, Vacuum adiabatic calorimetry): 135.02 ± 0.27 J/K/mol
- molar heat capacity ([1]; 172.31 K, Glass, Vacuum adiabatic calorimetry): 140.99 ± 0.28 J/K/mol
- molar heat capacity ([1]; 177.53 K, Crystal, Vacuum adiabatic calorimetry): 143.52 ± 0.28 J/K/mol
- molar heat capacity ([1]; 180 K, Crystal, Vacuum adiabatic calorimetry): 145.34 ± 0.28 J/K/mol
- molar heat capacity ([1]; 183.8 K, Crystal, Vacuum adiabatic calorimetry): 148.26 ± 0.29 J/K/mol
- molar heat capacity ([1]; 184.4 K, Glass, Vacuum adiabatic calorimetry): 150.13 ± 0.29 J/K/mol
- molar heat capacity ([1]; 189.34 K, Crystal, Vacuum adiabatic calorimetry): 152.49 ± 0.29 J/K/mol
- molar heat capacity ([1]; 193.62 K, Glass, Vacuum adiabatic calorimetry): 157.14 ± 0.3 J/K/mol
- molar heat capacity ([1]; 195.08 K, Crystal, Vacuum adiabatic calorimetry): 157.04 ± 0.3 J/K/mol
- molar heat capacity ([1]; 198.88 K, Glass, Vacuum adiabatic calorimetry): 161.79 ± 0.3 J/K/mol
- molar heat capacity ([1]; 200 K, Crystal, Vacuum adiabatic calorimetry): 160.73 ± 0.3 J/K/mol
- molar heat capacity ([1]; 201.24 K, Crystal, Vacuum adiabatic calorimetry): 161.76 ± 0.3 J/K/mol
- molar heat capacity ([1]; 201.34 K, Glass, Vacuum adiabatic calorimetry): 162.43 ± 0.31 J/K/mol
- molar heat capacity ([1]; 206.16 K, Crystal, Vacuum adiabatic calorimetry): 165.72 ± 0.31 J/K/mol
- molar heat capacity ([1]; 212.82 K, Glass, Vacuum adiabatic calorimetry): 180.93 ± 0.32 J/K/mol
- molar heat capacity ([1]; 217.01 K, Crystal, Vacuum adiabatic calorimetry): 174.74 ± 0.32 J/K/mol
- molar heat capacity ([1]; 220 K, Crystal, Vacuum adiabatic calorimetry): 177.08 ± 0.32 J/K/mol
- molar heat capacity ([1]; 224.64 K, Liquid, Vacuum adiabatic calorimetry): 274.63 ± 0.43 J/K/mol
- molar heat capacity ([1]; 227.57 K, Crystal, Vacuum adiabatic calorimetry): 183.38 ± 0.32 J/K/mol
- molar heat capacity ([1]; 230.27 K, Liquid, Vacuum adiabatic calorimetry): 276.92 ± 0.43 J/K/mol
- molar heat capacity ([1]; 233.28 K, Liquid, Vacuum adiabatic calorimetry): 278.09 ± 0.44 J/K/mol
- molar heat capacity ([1]; 238.35 K, Crystal, Vacuum adiabatic calorimetry): 192.45 ± 0.34 J/K/mol
- molar heat capacity ([1]; 239.4 K, Liquid, Vacuum adiabatic calorimetry): 280.79 ± 0.44 J/K/mol
- molar heat capacity ([1]; 240 K, Crystal, Vacuum adiabatic calorimetry): 193.69 ± 0.34 J/K/mol
- molar heat capacity ([1]; 242.59 K, Liquid, Vacuum adiabatic calorimetry): 282.18 ± 0.44 J/K/mol
- molar heat capacity ([1]; 249.84 K, Crystal, Vacuum adiabatic calorimetry): 202.22 ± 0.35 J/K/mol
- molar heat capacity ([1]; 252.38 K, Liquid, Vacuum adiabatic calorimetry): 286.68 ± 0.45 J/K/mol
- molar heat capacity ([1]; 252.84 K, Liquid, Vacuum adiabatic calorimetry): 287 ± 0.45 J/K/mol
- molar heat capacity ([1]; 260 K, Crystal, Vacuum adiabatic calorimetry): 210.67 ± 0.36 J/K/mol
- molar heat capacity ([1]; 261.66 K, Crystal, Vacuum adiabatic calorimetry): 212.63 ± 0.36 J/K/mol
- molar heat capacity ([1]; 273.41 K, Crystal, Vacuum adiabatic calorimetry): 223.08 ± 0.37 J/K/mol
- molar heat capacity ([1]; 280 K, Crystal, Vacuum adiabatic calorimetry): 228.03 ± 0.38 J/K/mol
- molar heat capacity ([1]; 284.54 K, Liquid, Vacuum adiabatic calorimetry): 303.16 ± 0.47 J/K/mol
- molar heat capacity ([1]; 285.16 K, Crystal, Vacuum adiabatic calorimetry): 237.05 ± 0.39 J/K/mol
- molar heat capacity ([1]; 293.3 K, Liquid, Vacuum adiabatic calorimetry): 308.04 ± 0.47 J/K/mol
- molar heat capacity ([1]; 297.47 K, Crystal, Vacuum adiabatic calorimetry): 243.76 ± 0.4 J/K/mol
- molar heat capacity ([1]; 297.47 K, Liquid, Vacuum adiabatic calorimetry): 310.36 ± 0.47 J/K/mol
- molar heat capacity ([1]; 298.15 K, Liquid, Vacuum adiabatic calorimetry): 310.74 ± 0.47 J/K/mol
- molar heat capacity ([1]; 300 K, Liquid, Vacuum adiabatic calorimetry): 311.8 ± 0.47 J/K/mol
- molar heat capacity ([1]; 304.21 K, Liquid, Vacuum adiabatic calorimetry): 314.19 ± 0.48 J/K/mol
- molar heat capacity ([1]; 305.11 K, Liquid, Vacuum adiabatic calorimetry): 314.67 ± 0.48 J/K/mol
- molar heat capacity ([1]; 305.83 K, Liquid, Vacuum adiabatic calorimetry): 315.13 ± 0.48 J/K/mol
- molar heat capacity ([1]; 306.22 K, Liquid, Vacuum adiabatic calorimetry): 315.36 ± 0.48 J/K/mol
- molar heat capacity ([1]; 314.2 K, Liquid, Vacuum adiabatic calorimetry): 320 ± 0.49 J/K/mol
- molar heat capacity ([1]; 320 K, Liquid, Vacuum adiabatic calorimetry): 323.37 ± 0.49 J/K/mol
- molar heat capacity ([1]; 321.38 K, Liquid, Vacuum adiabatic calorimetry): 324.18 ± 0.49 J/K/mol
- molar heat capacity ([1]; 337.19 K, Liquid, Vacuum adiabatic calorimetry): 333.49 ± 0.51 J/K/mol
- molar heat capacity ([1]; 340 K, Liquid, Vacuum adiabatic calorimetry): 335.17 ± 0.51 J/K/mol
- molar heat capacity ([1]; 352.74 K, Liquid, Vacuum adiabatic calorimetry): 342.77 ± 0.52 J/K/mol
- molar heat capacity ([1]; 360 K, Liquid, Vacuum adiabatic calorimetry): 347.09 ± 0.52 J/K/mol
- molar heat capacity ([1]; 368.54 K, Liquid, Vacuum adiabatic calorimetry): 352.16 ± 0.52 J/K/mol
- molar heat capacity ([1]; 380 K, Liquid, Vacuum adiabatic calorimetry): 359 ± 0.53 J/K/mol
- molar heat capacity ([1]; 384.76 K, Liquid, Vacuum adiabatic calorimetry): 361.84 ± 0.54 J/K/mol
- molar heat capacity ([1]; 400 K, Liquid, Vacuum adiabatic calorimetry): 370.85 ± 0.55 J/K/mol
- molar heat capacity ([1]; 400.59 K, Liquid, Vacuum adiabatic calorimetry): 371.18 ± 0.55 J/K/mol
- molar heat capacity ([1]; 410 K, Liquid, Small sample (50 mg) DSC): 374.57 ± 9.1 J/K/mol and 371.91 ± 9.1 J/K/mol and 371.07 ± 9.1 J/K/mol
- molar heat capacity ([1]; 415.69 K, Liquid, Vacuum adiabatic calorimetry): 380.05 ± 0.56 J/K/mol
- molar heat capacity ([1]; 420 K, Liquid, Vacuum adiabatic calorimetry): 382.51 ± 0.57 J/K/mol
- molar heat capacity ([1]; 428.68 K, Liquid, Vacuum adiabatic calorimetry): 387.41 ± 0.57 J/K/mol
- molar heat capacity ([1]; 430 K, Liquid, Small sample (50 mg) DSC): 384.13 ± 9.4 J/K/mol and 385.46 ± 9.5 J/K/mol and 382.55 ± 9.4 J/K/mol
- molar heat capacity ([1]; 439.15 K, Liquid, Vacuum adiabatic calorimetry): 393.4 ± 0.57 J/K/mol
- molar heat capacity ([1]; 440 K, Liquid, Vacuum adiabatic calorimetry): 393.64 ± 0.57 J/K/mol
- molar heat capacity ([1]; 450 K, Liquid, Small sample (50 mg) DSC): 395.1 ± 9.6 J/K/mol and 393.86 ± 9.6 J/K/mol and 402.09 ± 9.8 J/K/mol
- molar heat capacity ([1]; 460 K, Liquid, Vacuum adiabatic calorimetry): 401.95 ± 0.58 J/K/mol
- molar heat capacity ([1]; 470 K, Liquid, Small sample (50 mg) DSC): 403.25 ± 9.9 J/K/mol and 404.83 ± 9.9 J/K/mol and 407.16 ± 10 J/K/mol
- molar heat capacity ([1]; 480 K, Liquid, Vacuum adiabatic calorimetry): 412.21 ± 0.6 J/K/mol
- molar heat capacity ([1]; 490 K, Liquid, Small sample (50 mg) DSC): 411.48 ± 10 J/K/mol and 416.14 ± 10 J/K/mol and 419.05 ± 10 J/K/mol
- molar heat capacity ([1]; 500 K, Liquid, Vacuum adiabatic calorimetry): 422.42 ± 0.61 J/K/mol
- molar heat capacity ([1]; 510 K, Liquid, Small sample (50 mg) DSC): 426.2 ± 10 J/K/mol and 428.36 ± 10 J/K/mol and 429.11 ± 10 J/K/mol
- molar heat capacity ([1]; 520 K, Liquid, Vacuum adiabatic calorimetry): 432.63 ± 0.62 J/K/mol
- molar heat capacity ([1]; 530 K, Liquid, Small sample (50 mg) DSC): 435.1 ± 11 J/K/mol and 439.09 ± 11 J/K/mol and 438.67 ± 11 J/K/mol
- molar heat capacity ([1]; 540 K, Liquid, Vacuum adiabatic calorimetry): 442.84 ± 0.63 J/K/mol
- molar heat capacity ([1]; 550 K, Liquid, Small sample (50 mg) DSC): 444.66 ± 11 J/K/mol and 449.81 ± 11 J/K/mol and 447.07 ± 11 J/K/mol
- molar heat capacity ([1]; 560 K, Liquid, Vacuum adiabatic calorimetry): 453.01 ± 0.65 J/K/mol
- molar heat capacity ([1]; 570 K, Liquid, Small sample (50 mg) DSC): 452.81 ± 11 J/K/mol and 460.62 ± 11 J/K/mol and 460.45 ± 11 J/K/mol
- molar heat capacity ([1]; 580 K, Liquid, Vacuum adiabatic calorimetry): 463.22 ± 0.66 J/K/mol
- molar heat capacity ([1]; 590 K, Liquid, Small sample (50 mg) DSC): 466.28 ± 11 J/K/mol and 469.1 ± 11 J/K/mol and 471.1 ± 12 J/K/mol
- molar heat capacity ([1]; 600 K, Liquid, Vacuum adiabatic calorimetry): 473.43 ± 0.67 J/K/mol
- molar heat capacity ([1]; 610 K, Liquid, Small sample (50 mg) DSC): 480.83 ± 12 J/K/mol and 476.5 ± 12 J/K/mol and 479.25 ± 12 J/K/mol
- molar heat capacity ([1]; 620 K, Liquid, Vacuum adiabatic calorimetry): 483.64 ± 0.68 J/K/mol
- molar heat capacity ([1]; 640 K, Liquid, Vacuum adiabatic calorimetry): 493.83 ± 0.7 J/K/mol
- molar heat capacity ([1]; 650 K, Liquid, Vacuum adiabatic calorimetry): 498.91 ± 0.7 J/K/mol
- Molar enthalpy of transition or fusion [2]: 3.716 ± 0.00406 kcal/mol
